Assay results as given in article PMC7539012, “Hyperphosphorylated tau aggregation and cytotoxicity modulators screen identified prescription drugs linked to Alzheimer's disease and cognitive functions” (Scientific Reports, 2020).
Structures can show the parent of a compound that is named as a salt.

System: T1, 1N4R p-tau
T1 construct: made in house; host or cells: E. coli (PIMAX system)
Experiment: p-tau aggregation modulator screen of 1280-compound library (ThS fluorescence net change over 16 h)
Type: biochemical
Settings: not given

Row | Molecule | ThS net change
1 | CN(C)CCCN1c2ccccc2CCc2ccccc21 [Imipramine hydrochloride] | 287
2 | Beta-Escin | 471
3 | Brc1c(NC2=NCCN2)ccc2nccnc12.O=C(O)C(O)C(O)C(=O)O [Brimondine L-Tartrate] | 418
4 | Clc1ccc(CO/N=C(\Cn2ccnc2)c2ccc(Cl)cc2Cl)c(Cl)c1 [Oxiconazole Nitrate] | 211

Same assay, conditions: 1280-compound library screen; ThS fluorescence net change over 16 h

Row | Molecule | ThS net change
5 | C[C@H]1C[C@H]2[C@@H]3CCC4=CC(=O)C=C[C@]4(C)[C@@]3(F)[C@@H](O)C[C@]2(C)[C@@]1(O)C(=O)CO [Betamethasone] | 395
6 | COc1cc(N)c(Cl)cc1C(=O)NC1CCN(Cc2ccccc2)CC1 [Clebopride maleate] | 406
7 | CCOc1ccc(NC(C)=O)cc1 [Phenacetin] | 400
8 | CN1CCCC(CC2c3ccccc3Sc3ccccc32)C1 (centres unmarked) [Metixene hydrochloride] | 386
9 | CCn1cc(C(=O)O)c(=O)c2cc(F)c(N3CCNC(C)C3)c(F)c21 (centres unmarked) [Lomefloxacin hydrochloride] | 390
10 | CC12CC3CC(C)(C1)CC(N)(C3)C2 [Memantine Hydrochloride] | 405
11 | O=c1[nH]c(=O)n([C@H]2C[C@H](O)[C@@H](CO)O2)cc1F [Floxuridine] | 388
12 | COC(=O)N/N=C/c1c[n+]([O-])c2ccccc2[n+]1[O-] [Carbadox] | 380
13 | NCCc1c[nH]c2ccc(O)cc12 [Serotonin hydrochloride] | 412
14 | NC(N)=Nc1nc(CSCCC(N)=NS(N)(=O)=O)cs1 [Famotidine] | 390
15 | C/C=C(/C(=C/C)c1ccc(O)cc1)c1ccc(O)cc1 [Dienestrol] | 410
16 | COc1ccccc1OCC(O)COC(N)=O (centres unmarked) [Methocarbamol] | 409
17 | CC(C)NCC(O)c1ccc2ccccc2c1.Cl (centres unmarked) [Pronethalol hydrochloride] | 411
18 | CC(N/C(=N\C#N)Nc1ccncc1)C(C)(C)C (centres unmarked) [Pinacidil] | 391
19 | COc1ccc(NS(=O)(=O)c2ccc(N)cc2)nn1 [Sulfamethoxypyridazine] | 392
20 | CCCCC1C(=O)N(c2ccccc2)N(c2ccc(O)cc2)C1=O (centres unmarked) [Oxyphenbutazone] | 398
21 | CC(CCc1ccccc1)NC(C)C(O)c1ccc(O)cc1 (centres unmarked) [Nylidrin] | 408

Same assay, conditions: 1280-compound library screen; […]

Row | Molecule | ThS net change
22 | COc1cc([C@@H]2c3cc4c(cc3[C@H](O)[C@H]3COC(=O)[C@H]23)OCO4)cc(OC)c1OC [Podophyllotoxin] | 402
23 | CCN(CC)CCOc1ccc(/C(=C(/Cl)c2ccccc2)c2ccccc2)cc1.O=C(O)CC(O)(CC(=O)O)C(=O)O [Clomiphene citrate (Z,E)] | 409
24 | C#CCN(C)[C@H](C)Cc1ccccc1 [Selegiline hydrochloride] | 388
25 | C#C[C@]1(O)CC[C@H]2[C@@H]3CCC4=CC(=O)CCC4=C3C=C[C@@]21CC [Gestrinone] | 397
26 | CC(C)C[C@H](CN)CC(=O)O [Pregabalin] | 400
27 | CC(Cc1ccccc1)NCCC(c1ccccc1)c1ccccc1 (centres unmarked) [Prenylamine lactate] | 401
28 | CNC(=O)Oc1ccc2c(c1)[C@]1(C)CCN(C)[C@@H]1N2C [Eserine hemisulfate salt] | 395

Same assay, conditions: library screen, ThS fluorescence net change over 16 h with p-tau

Row | Molecule | ThS net change
29 | CN(C)CCCN1c2ccccc2Sc2ccccc21 [Promazine hydrochloride] | 306
30 | COC(=O)C1=C(C#N)NC(C)=C(C(=O)OC(C)C)C1c1cccc([N+](=O)[O-])c1 (centres unmarked) [Nilvadipine] | 266
31 | CN1CCC(=C2c3ccccc3Sc3ccccc32)CC1 [Pimethixene maleate] | 320
32 | CN(C)[C@@H]1C(O)=C(C(N)=O)C(=O)[C@@]2(O)C(O)=C3C(=O)c4c(O)cccc4[C@@](C)(O)[C@H]3[C@H](O)[C@@H]12 [Oxytetracycline dihydrate] | 220
33 | O=C(CCCN1CCC2(CC1)C(=O)NCN2c1ccccc1)c1ccc(F)cc1 [Spiperone] | 313
34 | CN(C)[C@@H]1C(O)=C(C(N)=O)C(=O)[C@@]2(O)C(O)=C3C(=O)c4c(O)cccc4[C@@](C)(O)[C@H]3C[C@@H]12 [Tetracycline hydrochloride] | 202
35 | Oc1c(Cl)cc(Cl)c2cccnc12 [Chloroxine] | 288
36 | CCCCCC[C@H]1C(=O)O[C@H](C)[C@H](NC(=O)c2cccc(NC=O)c2O)C(=O)O[C@@H](C)[C@@H]1OC(=O)CC(C)C [Antimycin A] | 211

Same assay, conditions: p-tau aggregation modulator screen of 1280-compound library; ThS fluorescence net change

Row | Molecule | ThS net change
37 | CO[C@@H]1[C@@H](OC(N)=O)[C@@H](O)[C@H](Oc2ccc3c(O)c(NC(=O)c4ccc([O-])c(CC=C(C)C)c4)c(=O)oc3c2C)OC1(C)C.[Na+] [Novobiocin sodium salt] | 369
38 | Cc1cnc(NC(=O)C2=C(O)c3ccccc3S(=O)(=O)N2C)s1 [Meloxicam] | 375
39 | O=C1C(CC[S+]([O-])c2ccccc2)C(=O)N(c2ccccc2)N1c1ccccc1 (centres unmarked) [Sulfinpyrazone] | 342
40 | CCN1CCN(c2cc3c(cc2F)c(=O)c(C(=O)O)cn3C2CC2)CC1 [Enrofloxacin] | 364
41 | Cc1cn[nH]c1 [Fomepizole] | 344
42 | NC(=O)c1ccc[n+]([C@@H]2O[C@H](COP(=O)([O-])OP(=O)(O)OC[C@H]3O[C@@H](n4cnc5c(N)ncnc54)[C@H](O)[C@@H]3O)[C@@H](O)[C@H]2O)c1 [Nadide] | 366
43 | CO/N=C(\C(=O)N[C@@H]1C(=O)N2C(C(=O)O)=C(COC(N)=O)CS[C@H]12)c1ccco1 [Cefuroxime sodium salt] | 365
44 | CC(NCCc1ccc(O)cc1)C(O)c1ccc(O)cc1 (centres unmarked) [Ritodrine hydrochloride] | 363
45 | CCN(CC)C(C)CN1c2ccccc2Sc2ccccc21 (centres unmarked) [Ethopropazine hydrochloride] | 336
46 | Cc1cnc(C(=O)O)c[n+]1[O-] [Acipimox] | 369
47 | CNCCC=C1c2ccccc2C=Cc2ccccc21 [Norcyclobenzaprine] | 372
48 | Cc1c(Nc2ncccc2C(=O)O)cccc1C(F)(F)F [Flunixin meglumine] | 354
49 | O=C(O)Cc1ccccc1Nc1c(Cl)cccc1Cl [Diclofenac sodium] | 376
50 | CC(C(O)c1ccc(O)cc1)N1CCC(Cc2ccccc2)CC1.O=C(O)C(O)C(O)C(=O)O (centres unmarked) [Ifenprodil tartrate] | 361
51 | CC[N+](CC)(CC)CCOc1cccc(OCC[N+](CC)(CC)CC)c1OCC[N+](CC)(CC)CC [Gallamine triethiodide] | 363

Same assay, conditions: p-tau aggregation modulator screen of 1280-compound library; […]

Row | Molecule | ThS net change
52 | CCn1cc(C(=O)[O-])c(=O)c2ccc(C)nc21.[Na+] [Nalidixic acid sodium salt] | 339
53 | Cc1cc(=O)n(-c2ccccc2)n1C [Antipyrine] | 359
54 | Cl.O[C@@H]1CCCC[C@H]1N1CCC(c2ccccc2)CC1 [L(-)-vesamicol hydrochloride] | 360
55 | CCCC(C)(COC(N)=O)COC(=O)NC(C)C (centres unmarked) [Carisoprodol] | 370
56 | CC(C)(C)NCC(O)c1cc(Cl)c(N)c(Cl)c1 (centres unmarked) [Clenbuterol hydrochloride] | 349
57 | CN(C)CCOC(=O)COc1ccc(Cl)cc1.Cl [Meclofenoxate hydrochloride] | 359
58 | C=CCC1(CC(C)C)C(=O)NC(=O)NC1=O [Butalbital] | 374
59 | CC(C)CC(N(C)C)C1(c2ccc(Cl)cc2)CCC1.Cl (centres unmarked) [Sibutramine HCl] | 347

Same assay, conditions: p-tau aggregation modulator screen of the compound library, ThS fluorescence net change

Row | Molecule | ThS net change
60 | C[C@@H]1C[C@H]2[C@@H]3CCC4=CC(=O)C=C[C@]4(C)[C@@]3(Cl)[C@@H](O)C[C@]2(C)[C@@]1(OC(=O)c1ccco1)C(=O)CCl [Mometasone furoate] | 484
61 | C=C1c2cccc(O)c2C(=O)C2=C(O)[C@]3(O)C(=O)C(C(N)=O)=C(O)[C@@H](N(C)C)[C@@H]3[C@@H](O)[C@H]12 [Methacycline hydrochloride] | 537
62 | CC[N+](C)(C)Cc1ccccc1Br [Bretylium tosylate] | 431
63 | CCC(Cc1c(I)cc(I)c(N)c1I)C(=O)O (centres unmarked) [Iopanoic acid] | 464
64 | Cn1c(=O)c2c(ncn2C)n(C)c1=O [Caffeine] | 428
65 | CN1[C@@H]2CC[C@H]1C[C@@H](OC(c1ccccc1)c1ccccc1)C2 [Benztropine mesylate] | 419
66 | CCOC(=O)/C=C(C)/C=C/C=C(C)/C=C/c1c(C)cc(OC)c(C)c1C [Etretinate] | 420
67 | NCCc1c[nH]cn1 [Histamine dihydrochloride] | 438
68 | COCC1=C(C(=O)OC(C)OC(=O)OC(C)C)N2C(=O)[C@@H](NC(=O)/C(=N\OC)c3csc(N)n3)[C@H]2SC1 (some centres unmarked) [Cefpodoxime proxetil] | 454
69 | CC(C)(C(=O)O)c1ccc(C(O)CCCN2CCC(C(O)(c3ccccc3)c3ccccc3)CC2)cc1 (centres unmarked) [Fexofenadine HCl] | 435
70 | CCOc1ccc2nc(S(N)(=O)=O)sc2c1 [Ethoxzolamide] | 428
71 | CCCCC(C)(O)C/C=C/[C@H]1[C@H](O)CC(=O)[C@@H]1CCCCCCC(=O)OC (mixture of isomers) [Misoprostol] | 495
72 | Cc1cccc(C)c1NC(=O)C1CCCCN1C (centres unmarked) [Mepivacaine hydrochloride] | 428
73 | CN(Cc1cc(Br)cc(Br)c1N)C1CCCCC1 [Bromhexine hydrochloride] | 545
74 | CC[C@H](C)C(=O)O[C@H]1C[C@H](O)C=C2C=C[C@H](C)[C@H](CC[C@@H](O)C[C@@H](O)CC(=O)O)[C@H]21 [Pravastatin] | 467
75 | COc1cc(NS(=O)(=O)c2ccc(N)cc2)ncn1 [Sulfamonomethoxine] | 419
76 | Nc1ccn([C@@H]2CS[C@H](CO)O2)c(=O)n1 [Lamivudine] | 424
77 | C[C@@H]1CN([C@H]2CC[C@](C#N)(c3ccc(F)cc3)CC2)CC[C@]1(C(=O)O)c1ccccc1 [Levocabastine hydrochloride] | 416
